# In ChEMBL document CHEMBL3856212, “Synthesis, anti-proliferative and genotoxicity studies of 6-chloro-5-(2-substituted-ethyl)-1,3-dihydro-2H-indol-2-ones and 6-chloro-5-(2-chloroethyl)-3-(alkyl/ary-2-ylidene)indolin-2-ones” (Eur J Med Chem, 2016):
# Key:
# [1] = Cytotoxicity against human A498 cells assessed as assessed as growth inhibition at 10^-5 M after 48 hrs by SRB assay relative to control; type: functional; conditions: A498, 48 h, read-out: GI
# [2] = species: Mus musculus; experiment: Genotoxicity in mouse EAC cells at 250 uM after 24 hrs by micronucleus assay (reference value: 3.5 +/- 0.30%); type: toxicity, cell-based; conditions: ehrlich
# [3] = Cytotoxicity against human PC3 cells assessed as growth inhibition after 48 hrs by SRB assay; type: functional; conditions: PC-3, 48 h; for CC50: read-out: LD50 (the source's name)
# [4] = Cytotoxicity against human SKOV3 cells assessed as growth inhibition after 48 hrs by SRB assay; type: functional; conditions: SK-OV-3, 48 h; for CC50: read-out: LD50 (the source's name)
# [5] = Cytotoxicity against human MALME-3M cells assessed as assessed as growth inhibition at 10^-5 M after 48 hrs by SRB assay relative to control; type: functional; conditions: read-out: GI
# [6] = Cytotoxicity against human NCI-ADR-RES cells assessed as assessed as growth inhibition at 10^-5 M after 48 hrs by SRB assay relative to control; type: functional; conditions: read-out: GI
# [7] = Cytotoxicity against human U251 cells assessed as growth inhibition after 48 hrs by SRB assay; type: functional; conditions: U-251, 48 h; for CC50: read-out: LD50 (the source's name)
# [8] = Cytotoxicity against human ACHN cells assessed as growth inhibition after 48 hrs by SRB assay; type: functional; conditions: for CC50: read-out: LD50 (the source's name)
# [9] = Cytotoxicity against human RPMI8226 cells assessed as growth inhibition after 48 hrs by SRB assay; type: functional; conditions: RPMI-8226, 48 h; for CC50: read-out: LD50 (the source's name)
# [10] = Cytotoxicity against human MCF7 cells assessed as growth inhibition after 48 hrs by SRB assay; type: functional; conditions: MCF7, 48 h; for CC50: read-out: LD50 (the source's name)
# [11] = Induction of apoptosis in mouse EAC cells at 500 uM after 24 hrs by acridine orange dye-based fluorescence microscopy (reference value: 0.66 +/- 0.33%); type: cell-based; conditions: ehrlich
# [12] = Induction of apoptosis in mouse EAC cells at 375 uM after 24 hrs by acridine orange dye-based fluorescence microscopy (reference value: 0.66 +/- 0.33%); type: cell-based; conditions: ehrlich
# [13] = Cytotoxicity against human Hs 578T cells assessed as assessed as growth inhibition at 10^-5 M after 48 hrs by SRB assay relative to control; type: functional; conditions: read-out: GI
# [14] = Cytotoxicity against human SF539 cells assessed as growth inhibition after 48 hrs by SRB assay; type: functional; conditions: SF-539, 48 h; for CC50: read-out: LD50 (the source's name)
# [15] = Cytotoxicity against human A549 cells assessed as growth inhibition after 48 hrs by SRB assay; type: functional; conditions: A549, 48 h; for CC50: read-out: LD50 (the source's name)
# [16] = Cytotoxicity against human T47D cells assessed as growth inhibition after 48 hrs by SRB assay; type: functional; conditions: for CC50: read-out: LD50 (the source's name)
# [17] = Cytotoxicity against human CCRF-CEM cells assessed as growth inhibition after 48 hrs by SRB assay; type: functional; conditions: for CC50: read-out: LD50 (the source's name)
# [18] = Cytotoxicity against human COLO205 cells assessed as growth inhibition after 48 hrs by SRB assay; type: functional; conditions: COLO 205, 48 h; for CC50: read-out: LD50 (the source's name)
# [19] = Cytotoxicity against human SF295 cells assessed as assessed as growth inhibition at 10^-5 M after 48 hrs by SRB assay relative to control; type: functional; conditions: SF-295, 48 h, read-out: GI
# [20] = Cytotoxicity against human OVCAR4 cells assessed as assessed as growth inhibition at 10^-5 M after 48 hrs by SRB assay relative to control; type: functional; conditions: OVCAR-4, 48 h, read-out: GI
# [21] = Cytotoxicity against human RXF393 cells assessed as assessed as growth inhibition at 10^-5 M after 48 hrs by SRB assay relative to control; type: functional; conditions: RXF 393, 48 h, read-out: GI
# [22] = Cytotoxicity against human SNB19 cells assessed as growth inhibition after 48 hrs by SRB assay; type: functional; conditions: SNB-19, 48 h; for CC50: read-out: LD50 (the source's name)
# [23] = Cytotoxicity against human SK-MEL-5 cells assessed as assessed as growth inhibition at 10^-5 M after 48 hrs by SRB assay relative to control; type: functional; conditions: SK-MEL-5, 48 h, read-out: GI
# [24] = Cytotoxicity against human OVCAR8 cells assessed as growth inhibition after 48 hrs by SRB assay; type: functional; conditions: OVCAR-8, 48 h; for CC50: read-out: LD50 (the source's name)
# [25] = Cytotoxicity against human M14 cells assessed as growth inhibition after 48 hrs by SRB assay; type: functional; conditions: M14, 48 h; for CC50: read-out: LD50 (the source's name)
# [26] = Cytotoxicity against human SNB75 cells assessed as assessed as growth inhibition at 10^-5 M after 48 hrs by SRB assay relative to control; type: functional; conditions: SNB-75, 48 h, read-out: GI
# [27] = Cytotoxicity against human DU145 cells assessed as growth inhibition after 48 hrs by SRB assay; type: functional; conditions: DU-145, 48 h; for CC50: read-out: LD50 (the source's name)
# [28] = Cytotoxicity against human LOXIMVI cells assessed as assessed as growth inhibition at 10^-5 M after 48 hrs by SRB assay relative to control; type: functional; conditions: LOX IMVI, read-out: GI
# [29] = Cytotoxicity against human MOLT4 cells assessed as growth inhibition after 48 hrs by SRB assay; type: functional; conditions: MOLT-4, 48 h; for CC50: read-out: LD50 (the source's name)
# [30] = Cytotoxicity against human LOXIMVI cells assessed as growth inhibition after 48 hrs by SRB assay; type: functional; conditions: LOX IMVI; for CC50: read-out: LD50 (the source's name)
# [31] = Induction of apoptosis in mouse EAC cells at 125 uM after 24 hrs by acridine orange dye-based fluorescence microscopy (reference value: 0.66 +/- 0.33%); type: cell-based; conditions: ehrlich
# [32] = Cytotoxicity against human SK-MEL-5 cells assessed as growth inhibition after 48 hrs by SRB assay; type: functional; conditions: SK-MEL-5, 48 h; for CC50: read-out: LD50 (the source's name)
# [33] = Cytotoxicity against human NCI-H23 cells assessed as assessed as growth inhibition at 10^-5 M after 48 hrs by SRB assay relative to control; type: functional; conditions: NCI-H23, 48 h, read-out: GI
# [34] = Cytotoxicity against human UACC257 cells assessed as assessed as growth inhibition at 10^-5 M after 48 hrs by SRB assay relative to control; type: functional; conditions: UACC-257, 48 h, read-out: GI
structure (smiles),measurement,setting,value
O=C1Cc2cc(CCn3ccnc3)c(Cl)cc2N1,inhibition of growth at 10 µM,[1],32.2%
same,Activity,[2],2.83%
same,GI50,[3],3560 nM
same,TGI,[3],> 1000 nM
same,CC50,[3],> 1000 nM
same,GI50,[4],1810 nM
same,TGI,[4],> 1000 nM
same,CC50,[4],> 1000 nM
same,inhibition of growth at 10 µM,[5],2.24%
same,inhibition of growth at 10 µM,[6],54.3%
same,GI50,[7],8240 nM
same,TGI,[7],> 1000 nM
same,CC50,[7],> 1000 nM
same,GI50,[8],2030 nM
same,TGI,[8],> 1000 nM
same,CC50,[8],> 1000 nM
same,GI50,[9],4610 nM
same,TGI,[9],> 1000 nM
same,CC50,[9],> 1000 nM
same,GI50,[10],4120 nM
same,TGI,[10],> 1000 nM
same,CC50,[10],> 1000 nM
same,Activity,[11],0.53%
same,Activity,[12],0.66%
same,inhibition of growth at 10 µM,[13],68.9%
same,GI50,[14],6000 nM
same,TGI,[14],> 1000 nM
same,CC50,[14],> 1000 nM
same,GI50,[15],7630 nM
same,TGI,[15],> 1000 nM
same,CC50,[15],> 1000 nM
same,GI50,[16],7560 nM
same,TGI,[16],> 1000 nM
same,CC50,[16],> 1000 nM
same,GI50,[17],3370 nM
same,TGI,[17],> 1000 nM
same,CC50,[17],> 1000 nM
same,GI50,[18],1510 nM
same,TGI,[18],> 1000 nM
same,CC50,[18],> 1000 nM
same,inhibition of growth at 10 µM,[19],36.6%
same,inhibition of growth at 10 µM,[20],2.81%
same,inhibition of growth at 10 µM,[21],42%
same,GI50,[22],2210 nM
same,TGI,[22],> 1000 nM
same,CC50,[22],> 1000 nM
same,inhibition of growth at 10 µM,[23],67.8%
same,GI50,[24],2410 nM
same,TGI,[24],> 1000 nM
same,CC50,[24],> 1000 nM
same,GI50,[25],3460 nM
same,TGI,[25],3980 nM
same,CC50,[25],> 1000 nM
same,inhibition of growth at 10 µM,[26],31.7%
same,GI50,[27],8020 nM
same,TGI,[27],> 1000 nM
same,CC50,[27],> 1000 nM
same,inhibition of growth at 10 µM,[28],26.4%
same,GI50,[29],5670 nM
same,TGI,[29],> 1000 nM
same,CC50,[29],> 1000 nM
same,GI50,[30],8530 nM
same,TGI,[30],> 1000 nM
same,CC50,[30],> 1000 nM
same,Activity,[31],0.33%
same,GI50,[32],8120 nM
same,TGI,[32],> 1000 nM
same,CC50,[32],> 1000 nM
same,inhibition of growth at 10 µM,[33],73.3%
same,inhibition of growth at 10 µM,[34],39.8%
O=C1Cc2cc(CCN3CCNCC3)c(Cl)cc2N1,inhibition of growth at 10 µM,[1],33.9%
same,Activity,[2],4.43%
same,GI50,[3],9830 nM
same,TGI,[3],> 1000 nM
same,CC50,[3],> 1000 nM
same,GI50,[4],1000 nM
same,TGI,[4],> 1000 nM
same,CC50,[4],> 1000 nM
same,inhibition of growth at 10 µM,[5],19.6%
same,inhibition of growth at 10 µM,[6],51.6%
same,GI50,[7],7790 nM
same,TGI,[7],> 1000 nM
same,CC50,[7],> 1000 nM
same,GI50,[8],1000 nM
same,TGI,[8],> 1000 nM
same,CC50,[8],> 1000 nM
same,GI50,[9],6030 nM
same,TGI,[9],> 1000 nM
same,CC50,[9],> 1000 nM
same,GI50,[10],3650 nM
same,TGI,[10],> 1000 nM
same,CC50,[10],> 1000 nM
same,Activity,[11],0.86%
same,Activity,[12],1.33%
same,inhibition of growth at 10 µM,[13],69.9%
same,GI50,[14],1000 nM
same,TGI,[14],> 1000 nM
same,CC50,[14],> 1000 nM
same,GI50,[15],6850 nM
same,TGI,[15],> 1000 nM
same,CC50,[15],> 1000 nM
same,GI50,[16],2910 nM
same,TGI,[16],> 1000 nM
same,CC50,[16],> 1000 nM
same,GI50,[17],2980 nM
same,TGI,[17],> 1000 nM
same,CC50,[17],> 1000 nM
same,GI50,[18],1970 nM
same,TGI,[18],> 1000 nM
same,CC50,[18],> 1000 nM
same,inhibition of growth at 10 µM,[19],46.4%
same,inhibition of growth at 10 µM,[20],19%
same,inhibition of growth at 10 µM,[21],60.1%
same,GI50,[22],2370 nM
same,TGI,[22],> 1000 nM
same,CC50,[22],> 1000 nM
same,inhibition of growth at 10 µM,[23],65.4%
same,GI50,[24],3680 nM
same,TGI,[24],> 1000 nM
same,CC50,[24],> 1000 nM
same,GI50,[25],3020 nM
same,TGI,[25],2650 nM
same,CC50,[25],> 1000 nM
same,inhibition of growth at 10 µM,[26],38.6%
same,GI50,[27],1990 nM
same,TGI,[27],> 1000 nM
same,CC50,[27],> 1000 nM
same,inhibition of growth at 10 µM,[28],21.4%
same,GI50,[29],1000 nM
same,TGI,[29],> 1000 nM
same,CC50,[29],> 1000 nM
same,GI50,[30],1000 nM
same,TGI,[30],> 1000 nM
same,CC50,[30],> 1000 nM
same,Activity,[31],1%
same,GI50,[32],5330 nM
same,TGI,[32],> 1000 nM
same,CC50,[32],> 1000 nM
same,inhibition of growth at 10 µM,[33],77.2%
same,inhibition of growth at 10 µM,[34],48%
